Key:
[1] = system: patients with rheumatoid arthritis; experiment: Clinical trial of M-Trex (Mobiletrex) in patients with rheumatoid arthritis, relative to methotrexate; format: in vivo, human; set-up: CRP: unit not given here; conditions: for CRP: plasma C-Reactive Protein
Source text: In 2002; Castaneda and M. Gopal Nair conducted the clinical trial of a metabolism-blocked antifolate Mobileterx in patients with rheumatoid arthritis to evaluate its efficacy relative to the well-known antifolate drug methotrexate. In this pilot study [O. Castaneda and M. Gopal Nair. [The J. Rheumatology.

[2] = system: CCRF-CEM; experiment: Growth inhibition of human tumor cells in culture, CCRF-CEM (Leukemia); format: cell-based
Source text: (§1) The preceding data summarize the ability of compound 2 to inhibit 50% of the growth of selected tumor cells in culture. The values are expressed as Log10 GI50 values all of which are lower than 10^−8 M. In the same table a comparison is made of the respective values of TGI (Total Growth Inhibition) for 2 and methotrexate.

[3] = system: MOLT-4; experiment: Growth inhibition of human tumor cells in culture, MOLT-4 (Leukemia); format: cell-based
Source text: as §1

[4] = system: RPMI 8226; experiment: Growth inhibition of human tumor cells in culture, RPMI 8226 (Leukemia); format: cell-based
Source text: as §1

[5] = system: SR; experiment: Growth inhibition of human tumor cells in culture, SR (Leukemia); format: cell-based
Source text: as §1

[6] = system: K562; experiment: Growth inhibition of human tumor cells in culture, K562 (Leukemia); format: cell-based
Source text: as §1

[7] = system: MCF-7; experiment: Growth inhibition of human tumor cells in culture, MCF-7 (Breast Cancer); format: cell-based
Source text: as §1

[8] = system: MCF7-ADR-RES; experiment: Growth inhibition of human tumor cells in culture, MCF7-ADR-RES (Breast Cancer); format: cell-based
Source text: as §1

[9] = system: SF 539; experiment: Growth inhibition of human tumor cells in culture, SF 539 (CNS Cancer); format: cell-based
[10] = system: selected tumor cells in culture; experiment: Growth inhibition of selected tumor cells in culture (summary); format: cell-based, Human; conditions: all selected tumor cell lines of the table; read-out: GI50 (inhibit 50% of the growth)
Source text: as §1

[11] = system: Human HCT-8 Colon Xenograft; experiment: Antitumor activity in nude mice bearing human HCT-8 colon xenograft; format: in vivo; conditions: i.v. push daily × 5
[12] = Toxicity (maximum tolerated dose), i.v. push daily × 5 in nude mice; format: in vivo; conditions: i.v. push daily × 5, nude mice bearing HCT-8 xenograft
[13] = Bioavailability / absorption of oral methotrexate in patients; format: in vivo, human; conditions: oral dosage form, group of arthritic patients (Example-2)
[14] = system: patients with rheumatoid arthritis; experiment: Conventional therapy of rheumatoid arthritis with methotrexate in patients; format: in vivo, human
[15] = oral dosage form; cited from earlier work
[16] = cited from earlier work
[17] = system: aldehyde oxidase; conditions: cited from earlier work
[18] = cited from earlier work; remark: listed apart in the source
[19] = Hypothetical ADMEP and Phase-I-II study of compound 1 (Example-3); format: in vivo, humans; conditions: 1.5 mg from the gut to the plasma three times a day (4.5 mg/24 hours)
Experimental: Based on ADMEP (Absorption, Distribution, Metabolism, Excretion, Pharmacokinetics) studies conducted with analogous compound 1 in animals and humans during pre-clinical investigations and Phase-I-II clinical trials it was determined that an absorption of 1.0 mg of the drug from the gut to plasma three times a day from divided oral dosage units is optimal (3.0 mg/24 hours) in treating the antifolate responsive disease without causing significant toxicity. […] The bioavailability of this drug from the oral dosage unit used was only 10 percent as determined from a Phase-I clinical trial in healthy volunteers. […] The Bioavailability of this new medication was pH dependent due to solubility reasons and therefore it was possible that fluctuations in bioavailability might occur in certain patients as described in example-2. Thus in certain patients taking antacids or drugs such as certain prostaglandin to reduce acid secretion or other unknown factors the pH of the gut might increase to enhance the solubility and thereby increasing the bio-availability to the 15 to 20% range.

C=C(CC(NC(=O)c1ccc(CCc2ccc3nc(N)nc(N)c3c2)cc1)C(=O)O)C(=O)O (stereo not shown) [Compound 2]
ESR ([1]; 4 wks): 52.7 | HAQ ([1]; 4 wks): 1.8 | Pa. GA ([1]; 4 wks): 6.0 | Ph. GA ([1]; 4 wks): 6.2 | S. Joints ([1]; 4 wks): 5.6 | T. Joints ([1]; 4 wks): 10.2 | Pain ([1]; 4 wks of treatment, rheumatoid arthritis patients): 4.1 | CRP ([1]; 4 wks): 22.1 | ESR ([1]; 8 wks): 32.7 | HAQ ([1]; 8 wks): 1.6 | Pa. GA ([1]; 8 wks): 6.0 | Pain ([1]; 8 wks): 2.8 | Ph. GA ([1]; 8 wks): 5.0 | S. Joints ([1]; 8 wks): 3.5 | T. Joints ([1]; 8 wks): 7.3 | CRP ([1]; 8 wks): 20.7 | ESR ([1]; 12 wks): 38.3 | HAQ ([1]; 12 wks): 1.4 | Pa. GA ([1]; 12 wks): 5.0 | Pain ([1]; 12 wks): 2.2 | Ph. GA ([1]; 12 wks): 4.5 | S. Joints ([1]; 12 wks): 3.0 | T. Joints ([1]; 12 wks): 5.8 | CRP ([1]; 12 wks): 17.7 | ESR ([1]; 16 wks): 38.6 | HAQ ([1]; 16 wks): 1.4 | Pa. GA ([1]; 16 wks): 3.0 | Pain ([1]; 16 wks): 1.8 | Ph. GA ([1]; 16 wks): 3.0 | S. Joints ([1]; 16 wks): 2.9 | T. Joints ([1]; 16 wks): 5.8 | CRP ([1]; 16 wks): 13.6 | plasma concentration of C-Reactive Protein (CRP) ([1]; as the treatment progressed): consistently decreased | TGI (Total Growth Inhibition) [2]: <−8.00 | Log10 GI50 ([2]; Log10 of molar concentration): <−8.00 | TGI (Total Growth Inhibition) [3]: −7.40 | Log10 GI50 ([3]; Log10 of molar concentration): <−8.00 | TGI (Total Growth Inhibition) [4]: −7.44 | Log10 GI50 ([4]; Log10 of molar concentration): <−8.00 | TGI (Total Growth Inhibition) [5]: <−8.00 | Log10 GI50 ([5]; Log10 of molar concentration): <−8.00 | TGI (Total Growth Inhibition) [6]: <−8.00 | Log10 GI50 ([6]; Log10 of molar concentration): <−8.00 | TGI (Total Growth Inhibition) [7]: −6.32 | Log10 GI50 ([7]; Log10 of molar concentration): <−8.00 | TGI (Total Growth Inhibition) [8]: −7.26 | Log10 GI50 ([8]; Log10 of molar concentration): <−8.00 | TGI (Total Growth Inhibition) [9]: −6.3 | Log10 GI50 ([9]; Log10 of molar concentration): <−8.00 | GI50 [10]: < 0.01 µM | MTGI (%) Maximum Tumor Growth Inhibition (% of control) ([11]; 4.0 mg/kg/day (MTD)): 91.4 ± 2.2% | T/C % ([11]; 4.0 mg/kg/day (MTD)): 623.08% | TD (days) Tumor Doubling Time ([11]; 4.0 mg/kg/day (MTD)): 16.2 ± 3.2 days | Maximum Tolerated dose [12]: M-Trex (4.0 mg/kg/day)

CN(Cc1cnc2nc(N)nc(N)c2n1)c1ccc(C(=O)N[C@@H](CCC(=O)O)C(=O)O)cc1 [Methotrexate, reference compound]
TGI (Total Growth Inhibition) [2]: −3.77 | TGI (Total Growth Inhibition) [3]: −3.55 | TGI (Total Growth Inhibition) [4]: −3.66 | TGI (Total Growth Inhibition) [5]: −3.50 | TGI (Total Growth Inhibition) [6]: −3.30 | TGI (Total Growth Inhibition) [9]: −3.66 | MTGI (%) Maximum Tumor Growth Inhibition (% of control) ([11]; 1.0 mg/kg/day (MTD)): 30.0 ± 9.0% | T/C % ([11]; 1.0 mg/kg/day (MTD)): 176.92% | TD (days) Tumor Doubling Time ([11]; 1.0 mg/kg/day (MTD)): 4.6 ± 0.6 days | MTD at 5 days ([12]; mouse, in vivo, iv): 1 mg/kg/day | absorption [13]: 20% | non-responders ([14]; certain patient populations): up to 40% | drug related toxicity ([14]; some patients): significant drug related toxicity including elevation of liver enzymes | bioavailability [15]: 20-80% | adverse effects of overdose ([16]; 60 mg weekly instead of 15 mg weekly, oral tablets, rheumatoid arthritis patient): odynophagia, dysphagia and oesophagitis | adverse effects of dosing error ([16]; weekly dose taken in error daily or on several days each week): severe unwanted effects, including neutropenia, hepatotoxicity and bone marrow suppression | aldehyde oxidase mediated oxidative deactivation [17]: efficiently converted to its corresponding 7-hydroxymethotrexate | solubility [18]: pH dependent

C=C(CC(NC(=O)c1ccc(CCc2ccc3nc(N)nc(N)c3c2)cc1)C(=O)O)C(=O)O (stereo not shown) [Compound 1, 4′-Methylene-5,8,10-trideazaaminopterin]
toxicity [19]: unacceptable GI and bone marrow toxicity

— patent US20100260825A1, “Antifolates for the treatment of cardiovascular, inflammatory, neoplastic, autoimmune and related diseases in sublingual dosage units, film strips, or skin patches” (priority 2009, published 2010)
